From PubChem BioAssay AID602166 (The Scripps Research Institute Molecular Screening Center, 2012)
The source made the active and inactive calls. No rule for the calls is given here.

Biological target: Nuclear receptor coactivator 3 (Homo sapiens) (UniProt Q9Y6Q9)
Test: NCOA3 reporter inhibition potency – cell-based, luminescence, dose response (AID 602166);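 also: potency for reduction of SRC3 reporter signal so compounds are inhibitors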
Conditions: SRC3 luciferase reporter cell assay

Sequence of Nuclear receptor coactivator 3 (Homo sapiens) (Q9Y6Q9 whole entry, looked up): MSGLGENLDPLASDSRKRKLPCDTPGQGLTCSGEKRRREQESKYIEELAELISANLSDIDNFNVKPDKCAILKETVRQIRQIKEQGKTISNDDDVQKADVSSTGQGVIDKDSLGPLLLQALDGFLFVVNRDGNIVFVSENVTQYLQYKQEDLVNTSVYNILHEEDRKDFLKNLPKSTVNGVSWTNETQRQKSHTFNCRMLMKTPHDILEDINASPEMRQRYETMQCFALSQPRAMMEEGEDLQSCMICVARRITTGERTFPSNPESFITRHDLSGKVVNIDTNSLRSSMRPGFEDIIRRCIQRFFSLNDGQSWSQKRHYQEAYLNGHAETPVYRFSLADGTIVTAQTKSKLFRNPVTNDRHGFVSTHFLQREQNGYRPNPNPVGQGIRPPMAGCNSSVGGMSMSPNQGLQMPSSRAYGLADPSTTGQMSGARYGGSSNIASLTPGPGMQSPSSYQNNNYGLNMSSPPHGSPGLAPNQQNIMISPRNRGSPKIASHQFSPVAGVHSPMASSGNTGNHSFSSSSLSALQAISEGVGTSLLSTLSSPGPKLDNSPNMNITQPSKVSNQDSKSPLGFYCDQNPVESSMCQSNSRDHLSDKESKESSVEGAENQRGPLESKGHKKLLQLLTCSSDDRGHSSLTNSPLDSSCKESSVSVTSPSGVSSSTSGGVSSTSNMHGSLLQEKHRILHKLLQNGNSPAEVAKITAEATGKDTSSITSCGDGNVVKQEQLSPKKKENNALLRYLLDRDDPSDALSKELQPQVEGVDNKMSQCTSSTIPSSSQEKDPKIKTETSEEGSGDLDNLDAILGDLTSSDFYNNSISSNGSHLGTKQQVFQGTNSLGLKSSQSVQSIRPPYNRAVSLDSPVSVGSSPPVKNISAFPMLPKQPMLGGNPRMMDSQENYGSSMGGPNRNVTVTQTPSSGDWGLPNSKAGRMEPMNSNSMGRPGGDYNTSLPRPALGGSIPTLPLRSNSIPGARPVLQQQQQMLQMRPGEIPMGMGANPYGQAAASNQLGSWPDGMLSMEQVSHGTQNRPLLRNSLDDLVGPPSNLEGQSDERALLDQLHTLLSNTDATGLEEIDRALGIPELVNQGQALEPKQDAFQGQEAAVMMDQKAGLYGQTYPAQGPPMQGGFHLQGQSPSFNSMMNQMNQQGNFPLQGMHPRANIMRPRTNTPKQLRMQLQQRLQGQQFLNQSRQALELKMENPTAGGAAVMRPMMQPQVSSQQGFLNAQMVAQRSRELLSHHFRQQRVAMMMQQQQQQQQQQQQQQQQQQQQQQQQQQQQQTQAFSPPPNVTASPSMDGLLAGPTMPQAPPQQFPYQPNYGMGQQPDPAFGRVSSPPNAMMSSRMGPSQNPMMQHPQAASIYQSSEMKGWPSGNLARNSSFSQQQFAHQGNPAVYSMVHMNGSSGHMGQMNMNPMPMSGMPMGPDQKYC

SMILES | IC50
Cn1cnc([N+](=O)[O-])c1Sc1nc(N)nc2c1ncn2C1OC(CO)C(O)C1O (centres undefined) | 6.37 µM
Cc1cc2nccc(-c3ccncc3)n2n1 | inactive
Cc1sc2ncnc(N3CCC(C(=O)Nc4ccccc4C(C)(C)C)CC3)c2c1C | 5.75 µM
NC(=S)N/N=C1\CCSc2ccc(Cl)cc21 | 3.94 µM
Cc1ccc(N=c2c([N+](=O)[O-])nn(-c3ccc4c(c3)OCCO4)n2O)cc1F | 8.48 µM
Cc1ccc(NC(=O)c2cc(C)n(-c3ccccc3)c2C)cc1 | > 35.9 µM (inactive)
C/C(=N\NC(=S)Nc1cc(S(=O)(=O)N2CCOCC2)ccc1Cl)c1ccccc1F | > 35.9 µM (inactive)
CCOC(=O)CC(=O)CSc1nccc(-c2cccnc2)n1 | inactive
COc1ccc(C(C(=O)NC2CCCCC2)N(C(=O)CCl)c2ccc(OC)cc2)cc1 (centres undefined) | 7.79 µM
NNC(=O)c1cc2ccccc2cc1O | 7.35 µM
Cc1nc([N+](=O)[O-])c(Sc2nc3ccccc3n2C)n1Cc1ccccc1 | inactive
O=C(Nc1cccc(C(F)(F)F)c1)Nc1nnc([C@@H]2C[C@H](O)[C@@H](CO)O2)s1 | 5.86 µM
C[C@@H](C(=O)Nc1ccc2c(c1)OCCO2)n1c(=O)[nH]c2ccccc2c1=O | > 35.9 µM (inactive)
Nc1nc2c(nnn2C2CC(O)C(CO)O2)c(=O)[nH]1 (centres undefined) | 7.87 µM
COc1cccc(F)c1C(C[N+](=O)[O-])c1c(N)n(C)c(=O)n(C)c1=O (centres undefined) | inactive
O=C(OCc1ccccc1)c1ccc(NCc2cc(O)ccc2O)cc1 | inactive
C=CCn1c(C)cc(C(=O)COc2ccc(C)nc2[N+](=O)[O-])c1C | > 35.9 µM (inactive)
NC(=O)c1cc(Sc2ccccc2)nc2ccccc12 | 3.53 µM
Cc1ccc(/C=C2\SC(=S)N(CCCC(=O)NC3CCCC3)C2=O)cc1 | 1.76 µM
O=C(OCCC12CC3CC(CC(C3)C1)C2)c1ccc(NCc2cc(O)ccc2O)cc1 | 4.38 µM
c1ccc(-c2noc(-c3ccc4ccccc4c3)n2)nc1 | 8.62 µM
O=C(Nc1ccc(OCC(=O)N2CCOCC2)cc1)c1cncc(Br)c1 | 4.43 µM

SMILES | IC50
COc1cc(/C=C(/C(=O)c2cccs2)c2nc3ccccc3[nH]2)cc(OC)c1O | > 35.9 µM (inactive)
CC(C)N(c1ccccc1)c1ccc(NC(=O)CCl)cc1 | inactive
COC(=O)c1cc(S(=O)(=O)NCCc2ccc(Cl)cc2)c[nH]1 | 5.72 µM
CC(=O)N1CCN(c2ncnc3ccccc23)CC1 | 8.94 µM
Cc1ccc(N(CCC#N)C(=O)CCl)cc1C | 8.64 µM
Oc1ccc(C=NNc2ccccn2)c(O)c1 | inactive
O=[N+]([O-])c1nn(-c2ccc3c(c2)OCCO3)n(O)c1=Nc1ccccc1 | 1.08 µM
O=C(Nc1nc2cc3c(cc2s1)OCCO3)C1=COCCO1 | inactive
O=C(NCCCn1ccnc1)c1ccc(N2CCCCCC2)c([N+](=O)[O-])c1 | inactive
C=C1C(=O)[C@]23C[C@H]1CCC2[C@@]1(C)C(C[C@@H]3O)[C@](C)(C(=O)OC)CC[C@@H]1O (some centres undefined) | 8.33 µM
O=C(Nc1ccccc1Oc1ccccc1)c1cc([N+](=O)[O-])ccc1Cl | 5.45 µM
C#CC(=O)N(c1cc(OC)ccc1OC)C(C(=O)NC1CCCC1)c1cccs1 (centres undefined) | > 35.9 µM (inactive)
COc1ccc(/C=C2\CN(Cc3ccccc3)C/C(=C\c3ccc(OC)c(O)c3)C2=O)cc1O | > 35.9 µM (inactive)
COc1cc2c(ccc3cc(OC)c(OC)c(O)c32)cc1O | inactive
Cc1cc(C(=O)COC(=O)C2=COCCO2)c(C)n1-c1ccccc1 | > 35.9 µM (inactive)
N#Cc1c2ccc(O)cc2n2ccccc12 | 3.41 µM
CC(C)(C)c1ccc(Oc2ccc(N)cn2)cc1 | inactive
c1ccc(-c2nnc(-c3ccccn3)nc2NC2CCCCC2)cc1 | 3.94 µM
Cc1ccc(-n2c(Cl)c(Cl)nc(Cl)c2=O)cc1 | inactive
Cc1cccc(Oc2sc(C(=O)c3ccccc3)c(N)c2C#N)c1 | 8.09 µM
Nc1nc(=S)c2ncn([C@@H]3O[C@H](CO)[C@@H](O)[C@H]3O)c2[nH]1 | 2.55 µM
O=C(CCl)Nc1cccc(-c2cnc3ccccc3n2)c1 | inactive

SMILES | IC50
CCCCC(=O)NC(c1ccc(Cl)cc1Cl)c1ccc2cccnc2c1O (centres undefined) | 4.71 µM
CCOc1ccc(/C=C2\SC(=S)N(CCC(=O)O)C2=O)cc1 | > 35.9 µM (inactive)
CCN(C(C)=O)c1cnc(C=NNC(N)=S)c2ccccc12 | 4.67 µM
CCC(=O)c1ccc(O)c(CC=C(C)C)c1 | 8.77 µM
Cc1c(CC(=O)NCCCC(=O)O)c(=O)oc2cc3c(cc12)CCC(C)(C)O3 | 7.52 µM
O=c1[nH]cnc2c1nnn2C1OC(CO)C(O)C1O (centres undefined) | 4.66 µM
CN[C@H]1CCc2cc(OC)c(OC)c(OC)c2-c2ccc(OC)c(=O)cc21 | > 35.9 µM (inactive)
COc1cc2[nH]c3c(Cl)ncnc3c2cc1OC | > 35.9 µM (inactive)
CC(=O)c1cccc(NC(=O)Nc2ccc3c(c2)N(C)C(=O)CS3)c1 | > 12 µM (inactive)
C(=N\Nc1nc2ccccc2[nH]1)/c1cccc2cccnc12 | 9.18 µM
CN(C)/C=C/C(=O)c1ccc2noc(-c3ccccc3)c2c1 | 3.72 µM
COc1cccc(-c2nnc3sc(C4CCCCC4)nn23)c1 | 1.73 µM
Cc1cc(-c2nnc(SCC(=O)Nc3ccccc3C(F)(F)F)o2)c(C)n1-c1ccccc1 | > 35.9 µM (inactive)
OCCN1CCN(C(=S)c2ccc(-c3ccccc3)cc2)CC1 | 4.57 µM
CCC(=O)N1CCN(c2ccnc3cc(Cl)ccc23)CC1 | 8.04 µM
CCOC(=O)C(=CNc1ccc(NC2=NCC(C)S2)cc1)C(=O)OCC (centres undefined) | 3.32 µM
CCCNC(=O)c1nnsc1S(=O)(=O)c1ccc(Cl)cc1 | 8.04 µM
C(=NNc1ccc2ccccc2n1)c1ccccn1 | inactive
COc1cc2oc(=O)cc(-c3ccc(-c4ccc(CO)cc4)cc3)c2c(OC)c1OC | 4.57 µM
CCOc1ccc(-c2cc(C)n3nc(C(N)=O)cc3n2)cc1 | 7.81 µM
Nc1ncnc(NCc2ccccc2)c1[N+](=O)[O-] | 5.6 µM
COC(CN(C(=O)CCl)C(C(=O)NC1CCCCC1)c1ccccc1C)OC (centres undefined) | 6.18 µM

SMILES | IC50
CCCCN1C=CC(=C2C(=O)c3ccccc3C2=O)C=C1 | 4.47 µM
COc1cc(/C=C2\CC(C(C)(C)C)C/C(=C\c3cc(OC)c(OC)c(OC)c3)C2=O)cc(OC)c1OC (centres undefined) | > 35.9 µM (inactive)
C=CCOc1ccc(/C=C2\SC(=S)N(CCC(=O)O)C2=O)cc1 | inactive
CC[C@@]1(O)C(=O)OCc2c1cc1n(c2=O)Cc2cc3c(NC(=O)CN)cccc3nc2-1 | 1.75 µM
C=CCOn1c(C)c(C(C)=O)c2c3nonc3ccc21 | 4.12 µM
O=C(CCCc1nc(-c2ccccc2Cl)no1)NC1CCCC1 | 8.14 µM
CCOc1ccc(Nc2cc(C)nc(-n3nc(C)cc3C)n2)cc1 | > 35.9 µM (inactive)
O=C(NC1CCCCC1)C(c1cccnc1)N(C(=O)CCl)c1cccc(Cl)c1 (centres undefined) | 3.1 µM
COc1cc(C(=O)OCC(=O)Nc2sccc2C(N)=O)cc(OC)c1OC | > 35.9 µM (inactive)
COC(=O)c1cccc2c1-c1ccccc1/C2=N/O | 2.35 µM
CCOc1ccccc1-n1c(SCC(=O)Nc2ccccc2C(=O)O)nc2ccccc2c1=O | > 35.9 µM (inactive)
CNc1ncnc(Sc2nc(N)nc3nc[nH]c23)c1[N+](=O)[O-] | 4.17 µM
Cc1nc(N2CCC(C(N)=O)CC2)c2c(-c3cccs3)csc2n1 | 6.94 µM
CN(C)c1ccc(C(=S)Nc2ccccc2)cc1 | > 35.9 µM (inactive)
Cc1cc(C(=O)CN2C(=O)c3ccccc3S2(=O)=O)c(C)n1C(C)C | inactive
CCN(c1cccc(C)c1)c1ncnc2nc[nH]c12 | inactive
O=S(=O)(/C(=C\c1ccc(C(F)(F)F)cc1)c1nc2ccccc2[nH]1)c1ccccc1 | > 12 µM (inactive)
Cc1ccc(N=Nc2ccc3ccccc3c2O)cc1 | > 35.9 µM (inactive)
CC(=O)/C(N=Nc1ccc2c(c1)OCCO2)=C(\C)O | > 35.9 µM (inactive)
CCc1nc(N)nc(N)c1-c1ccc(Cl)c([N+](=O)[O-])c1 | 4.28 µM
C=CCn1c(O)c(C(C)=NCc2cc(OC)cc(OC)c2)c(=O)[nH]c1=O | 7.73 µM
CC(=O)c1cccc(-c2csc3ncnc(Sc4nnnn4C)c23)c1 | inactive

SMILES | IC50
Cc1ncc(CO)c(/C=N/NC(=O)c2cc3c(s2)CCCC3)c1O | 7.15 µM
CCn1ccnc1CN(C)Cc1cn[nH]c1-c1ccc(OC)c(F)c1 | 4.91 µM
CN1CCN(c2ccc(NC(=O)N3CCc4ccccc43)cc2)CC1 | > 35.9 µM (inactive)
CC(=O)Nc1ccc(SCC(=O)c2cc(C)n(-c3ccccc3)c2C)cc1 | > 35.9 µM (inactive)
COc1cccc(/C=N/Nc2ccc([N+](=O)[O-])cn2)c1O | inactive
COc1cccc(CNc2ncnc3ccc(-c4c(C)noc4C)cc23)c1 | inactive
c1csc(Cc2nn3c(-c4ccncc4)nnc3s2)c1 | 8.11 µM
COc1ccc(-c2nsc3c(N4CCCCC4)ncnc23)cc1 | > 35.9 µM (inactive)
CCCC(=O)NC(c1ccc(Cl)cc1Cl)c1ccc2cccnc2c1O (centres undefined) | inactive
CCc1ccc(-c2nc(CSCC(=O)NCc3ccco3)c(C)o2)cc1 | > 35.9 µM (inactive)
COc1ccc(Nc2ccncc2[N+](=O)[O-])cc1 | 5.32 µM
CCc1ccc(/C=C2\SC(=S)N(CCCC(=O)NCCCN3CCOCC3)C2=O)cc1 | inactive
O=C(c1ccncc1)N(Cc1cc2ccccc2[nH]c1=O)C1CCCCC1 | 5.82 µM
O=C(COC(=O)c1ccc[nH]c1=O)Nc1ccc(N2CCCCC2)cc1 | 2.9 µM
Cc1nc2c(-c3ccc(Cl)cc3)cnn2c(N)c1-c1ccc(F)cc1 | > 35.9 µM (inactive)
Cc1ccc2occ(/C=N/NC(=O)[C@@H](N)Cc3ccccc3)c(=O)c2c1 | 9.86 µM
CCOc1cc(/C=C2\CCC/C(=C\c3cc(Cl)c(O)c(OCC)c3)C2=O)cc(Cl)c1O | > 35.8 µM (inactive)
S=C(Nc1ccccc1)Nc1ccc(OCc2ccc(Cl)cc2Cl)cc1 | 4.36 µM
Cc1cccc(C)c1NS(=O)(=O)c1ccc(-c2cnc(C3CC3)o2)cc1 | inactive
COc1ccccc1C(=O)N(CCC1CCCN1C)c1nc2ccccc2s1 (centres undefined) | > 35.9 µM (inactive)
Nc1nccc(-c2ccc(-n3cnc4ccccc43)cc2)n1 | 1.91 µM
